Test system: 991263-137-R1-J2-PDC complex spheroid viability
Assay: Anticancer human tumor 991263-137-R1-J2-PDC patient-derived colon adenocarcinoma cell line growth inhibition [POLQ]
Conditions: for IC50: curve of first compound; for viability, T/C: stronger effect = lower value
How it was run: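 Patient-derived tumour cells were co-cultured with HUVEC and mesenchymal stem cells as multicellular spheroids at 37 °C. They were treated with POLQ inhibitors (novobiocin, ART-558, RP6685) alone or combined with other agents. Top concentrations were at or near clinical Cmax (otherwise 10 microM; SN-38 at 1 microM), decreasing in half-log steps.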

[1] = second compound 0.0316 µM, first compound 0.0316 µM
[2] = second compound 0.0316 µM, first compound 0.1 µM
[3] = second compound 0.0316 µM, first compound 0.316 µM
[4] = second compound 0.0316 µM, first compound 1 µM
[5] = second compound 0.0316 µM, first compound 3.16 µM
[6] = second compound 0.0316 µM, first compound 10 µM
[7] = second compound 0.1 µM, first compound 0.0316 µM
[8] = second compound 0.1 µM, first compound 0.1 µM
[9] = second compound 0.1 µM, first compound 0.316 µM
[10] = second compound 0.1 µM, first compound 1 µM
[11] = second compound 0.1 µM, first compound 3.16 µM
[12] = second compound 0.1 µM, first compound 10 µM
[13] = second compound 0.316 µM, first compound 0.0316 µM
[14] = second compound 0.316 µM, first compound 0.1 µM
[15] = second compound 0.316 µM, first compound 0.316 µM
[16] = second compound 0.316 µM, first compound 1 µM
[17] = second compound 0.316 µM, first compound 3.16 µM
[18] = second compound 0.316 µM, first compound 10 µM
[19] = second compound 1 µM, first compound 0.0316 µM
[20] = second compound 1 µM, first compound 0.1 µM
[21] = second compound 1 µM, first compound 0.316 µM
[22] = second compound 1 µM, first compound 1 µM
[23] = second compound 1 µM, first compound 3.16 µM
[24] = second compound 1 µM, first compound 10 µM
[25] = second compound 3.16 µM, first compound 0.0316 µM
[26] = second compound 3.16 µM, first compound 0.1 µM
[27] = second compound 3.16 µM, first compound 0.316 µM
[28] = second compound 3.16 µM, first compound 1 µM
[29] = second compound 3.16 µM, first compound 3.16 µM
[30] = second compound 3.16 µM, first compound 10 µM
[31] = second compound 10 µM, first compound 0.0316 µM
[32] = second compound 10 µM, first compound 0.1 µM
[33] = second compound 10 µM, first compound 0.316 µM
[34] = second compound 10 µM, first compound 1 µM
[35] = second compound 10 µM, first compound 3.16 µM
[36] = second compound 10 µM, first compound 10 µM
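Note: spheroids exposed to compounds for 7 days before readout.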
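Throughout, for viability, T/C: 100% = DMSO vehicle control viability.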

Structure (SMILES): CNCc1ccc(-c2[nH]c3cc(F)cc4c3c2CCNC4=O)cc1 + Cc1cccc(N(C)C(=O)C2C(O)CCN2c2nc(C)cc(C(F)(F)F)c2C#N)c1
- IC50 (second compound 0.0316 µM): > 10 µM
- IC50 (second compound 0.1 µM): > 10 µM
- IC50 (second compound 0.316 µM): > 10 µM
- IC50 (second compound 1 µM): > 10 µM
- IC50 (second compound 3.16 µM): > 10 µM
- IC50 (second compound 10 µM): > 10 µM
- viability, T/C [1]: 107%
- viability, T/C [2]: 103%
- viability, T/C [3]: 118%
- viability, T/C [4]: 93.4%
- viability, T/C [5]: 86.2%
- viability, T/C [6]: 106%
- viability, T/C [7]: 110%
- viability, T/C [8]: 107%
- viability, T/C [9]: 101%
- viability, T/C [10]: 107%
- viability, T/C [11]: 105%
- viability, T/C [12]: 99.4%
- viability, T/C [13]: 108%
- viability, T/C [14]: 120%
- viability, T/C [15]: 77.2%
- viability, T/C [16]: 112%
- viability, T/C [17]: 110%
- viability, T/C [18]: 126%
- viability, T/C [19]: 115%
- viability, T/C [20]: 102%
- viability, T/C [21]: 102%
- viability, T/C [22]: 113%
- viability, T/C [23]: 127%
- viability, T/C [24]: 94.3%
- viability, T/C [25]: 112%
- viability, T/C [26]: 101%
- viability, T/C [27]: 107%
- viability, T/C [28]: 108%
- viability, T/C [29]: 110%
- viability, T/C [30]: 119%
- viability, T/C [31]: 107%
- viability, T/C [32]: 114%
- viability, T/C [33]: 107%
- viability, T/C [34]: 114%
- viability, T/C [35]: 123%
- viability, T/C [36]: 94.2%

Structure (SMILES): COc1cccc(OCCCN)c1-c1cc(Nc2cnc(C#N)cn2)n[nH]1 + Cc1cccc(N(C)C(=O)C2C(O)CCN2c2nc(C)cc(C(F)(F)F)c2C#N)c1
- IC50 (second compound 0.0316 µM): 0.677 µM
- IC50 (second compound 0.1 µM): 0.73 µM
- IC50 (second compound 0.316 µM): 0.879 µM
- IC50 (second compound 1 µM): 0.994 µM
- IC50 (second compound 3.16 µM): 0.833 µM
- IC50 (second compound 10 µM): 0.624 µM
- viability, T/C (second compound 0.0316 µM, first compound 0.00316 µM): 113%
- viability, T/C (second compound 0.0316 µM, first compound 0.01 µM): 104%
- viability, T/C [1]: 90.1%
- viability, T/C [2]: 85.2%
- viability, T/C [3]: 61.2%
- viability, T/C [4]: 42.8%
- viability, T/C (second compound 0.1 µM, first compound 0.00316 µM): 111%
- viability, T/C (second compound 0.1 µM, first compound 0.01 µM): 95.8%
- viability, T/C [7]: 104%
- viability, T/C [8]: 88.2%
- viability, T/C [9]: 62.2%
- viability, T/C [10]: 45.4%
- viability, T/C (second compound 0.316 µM, first compound 0.00316 µM): 105%
- viability, T/C (second compound 0.316 µM, first compound 0.01 µM): 99.6%
- viability, T/C [13]: 91.5%
- viability, T/C [14]: 94%
- viability, T/C [15]: 71.4%
- viability, T/C [16]: 47%
- viability, T/C (second compound 1 µM, first compound 0.00316 µM): 96.2%
- viability, T/C (second compound 1 µM, first compound 0.01 µM): 101%
- viability, T/C [19]: 96.7%
- viability, T/C [20]: 83%
- viability, T/C [21]: 76.7%
- viability, T/C [22]: 49.1%
- viability, T/C (second compound 3.16 µM, first compound 0.00316 µM): 110%
- viability, T/C (second compound 3.16 µM, first compound 0.01 µM): 108%
- viability, T/C [25]: 89.3%
- viability, T/C [26]: 94.8%
- viability, T/C [27]: 79.9%
- viability, T/C [28]: 43.4%
- viability, T/C (second compound 10 µM, first compound 0.00316 µM): 93.7%
- viability, T/C (second compound 10 µM, first compound 0.01 µM): 96.4%
- viability, T/C [31]: 91.6%
- viability, T/C [32]: 76.1%
- viability, T/C [33]: 55%
- viability, T/C [34]: 46.5%

Structure (SMILES): O=C(c1cc(Cc2n[nH]c(=O)c3ccccc23)ccc1F)N1CCN(C(=O)C2CC2)CC1 + Cc1cccc(N(C)C(=O)C2C(O)CCN2c2nc(C)cc(C(F)(F)F)c2C#N)c1
- IC50 (second compound 0.0316 µM): > 10 µM
- IC50 (second compound 0.1 µM): > 10 µM
- IC50 (second compound 0.316 µM): > 10 µM
- IC50 (second compound 1 µM): > 10 µM
- IC50 (second compound 3.16 µM): > 10 µM
- IC50 (second compound 10 µM): > 10 µM
- viability, T/C [1]: 105%
- viability, T/C [2]: 99.1%
- viability, T/C [3]: 92.4%
- viability, T/C [4]: 105%
- viability, T/C [5]: 79.5%
- viability, T/C [6]: 79.3%
- viability, T/C [7]: 101%
- viability, T/C [8]: 104%
- viability, T/C [9]: 93.2%
- viability, T/C [10]: 84.4%
- viability, T/C [11]: 87.1%
- viability, T/C [12]: 99%
- viability, T/C [13]: 92.5%
- viability, T/C [14]: 118%
- viability, T/C [15]: 96%
- viability, T/C [16]: 99.3%
- viability, T/C [17]: 90%
- viability, T/C [18]: 72%
- viability, T/C [19]: 90.2%
- viability, T/C [20]: 91.3%
- viability, T/C [21]: 91.5%
- viability, T/C [22]: 111%
- viability, T/C [23]: 107%
- viability, T/C [24]: 91.4%
- viability, T/C [25]: 80.8%
- viability, T/C [26]: 95.3%
- viability, T/C [27]: 92.8%
- viability, T/C [28]: 80.4%
- viability, T/C [29]: 108%
- viability, T/C [30]: 95.8%
- viability, T/C [31]: 96.5%
- viability, T/C [32]: 101%
- viability, T/C [33]: 86.1%
- viability, T/C [34]: 100%
- viability, T/C [35]: 106%
- viability, T/C [36]: 90.4%

Reference: PubChem BioAssay AID1963828 (Molecular Pharmacology Branch, DTP, NCI, 2024)
